From patent publication US6967205B1, “Compounds with antibacterial and antiparasitic properties” (New Pharma Research Sweden AB, priority 1999, dated 2005)
Converted amounts (≈) assume the structure as drawn. “And” between values parts separate entries of the source, which are not always exact repeats. Equal entries are not always repeated.

Tests used:
[1] = tested on: T. evansi; assay: Antitrypanosomal activity in vivo in white albino rats (Giemsa blood smears); settings: individual animals
Procedure: The antitrypanosomal activity of the present compounds was evaluated in vivo on 40 white albino rats. The rats were divided into 4 groups of 10 rats each. The rats were then inoculated intraperitoneally with 10^3 organisms of T. evansi (isolated from blood of naturally infected camels) in accordance with known methodology (see Kolmer, J. A., J. Infect. Dis., 17:78-95 (1915)). The progress of the infection was monitored with the aid of standard Giemsa procedure (see Cruickshank, R., Handbook of Bacteriology, E and S Livingstone Ltd., Edinborough and London, 1961), whereby peripheral blood samples from the rats were examined under microscope. The number of Trypanosoma organisms in every blood sample was calculated and classified as follows (the numbers below are given for fields examined on a microscope slide): • +++=>10 organisms • ++=5-10 organisms • +=1-4 organisms • 0=no organisms detected
On day 1 post infection, each group of rats was subcutaneously injected with a single dose of tested compound in an amount of 50.0 mg/kg body weight. The following drugs were administered:
Group #4: saline solution (control group)

[2] = tested on: Bacillus cereus; assay: M.I.C. by broth dilution method (NCCLS 1988), gram-positive bacteria; type: cell-based; settings: in vitro broth dilution
Procedure: (§1) The antibacterial activity of the present compounds was investigated by in vitro evaluation of their M.I.C. (Minimum Inhibitory Concentration) values. The evaluation was conducted in complete accordance with the “Broth dilution method”, as outlined by the U.S. National Committee for Clinical Laboratory Standards “NCCLS 1988”.
(§2) Solutions of the present compounds were prepared by dissolving 0.01 g of a test compound in either 10% KOH (aq) or a 10% KOH/DMF mixture, after which sterile, distilled H2O was added up to a total volume of 10 ml, thereby yielding a test compound concentration of 1 000 μg/ml.
(§3) In this evaluation, the antibacterial activity of the present compounds and enrofloxacin as reference compound was tested against seven strains of gram-positive bacteria, namely Bacillus subtilus (ATCC 6633), Bacillus cereus, Streptococcus faecium, Micrococcus Luteus (ATCC 9341), Staph. aureus (ATCC 29737), Staph. epidermidis (ATCC 12228) and Staphylococcus (ATCC 6538).

[3] = tested on: Streptococcus faecium; assay: as above; type: cell-based; settings: in vitro broth dilution; for MIC: Enterococcus faecium, read-out: M.I.C. values Streptoc. faecium
Procedure: as §1, §2, §3

[4] = tested on: Micrococcus Luteus (ATCC 9341); assay: as above; type: cell-based; settings: for MIC: ATCC9341, in vitro broth dilution, read-out: M.I.C. values Microc. Luteus
Procedure: as §1, §2, §3

[5] = tested on: Staph. epidermidis (ATCC 12228); assay: as above; type: cell-based; settings: for MIC: Staphylococcus epidermidis, ATCC12228, in vitro broth dilution
Procedure: as §1, §2, §3

[6] = tested on: Staph. aureus (ATCC 29737); assay: as above; type: cell-based; settings: for MIC: Staphylococcus aureus, ATCC29737, in vitro broth dilution
Procedure: as §1, §2, §3

[7] = tested on: Staphylococcus (ATCC 6538); assay: as above; type: cell-based; settings: for MIC: ATCC6538, in vitro broth dilution, read-out: M.I.C. values Staph. (ATCC 6538)
Procedure: as §1, §2, §3

[8] = tested on: Bacillus subtilus (ATCC 6633); assay: as above; type: cell-based; settings: for MIC: ATCC6633, in vitro broth dilution
Procedure: as §1, §2, §3

[9] = tested on: Eimeria acervulina, E. maxima, E. necatrix, E. tenella and E. brunetti; assay: Prophylactic anticoccidial activity in chickens of Habbared X breed (5 Eimeria strains); type: in vivo; settings: drug in feed (JA 39, JA 42 100 ppm; Coxistac 60 ppm)
Procedure: The anticoccidial activity of the present compounds as prophylactic agents was evaluated in vivo on […] one day old (1 day after hatch) chickens of Habbared X breed. The chickens were divided into four groups of 20 birds each, and each group was located in a separate pen (1 m×1 m). The chickens were then fed with unmedicated food up to day 7 after hatch. Fresh water was supplied ad libitum .
On day 8 after hatch, the four groups were fed as follows (1 ppm=1 mg drug/kg feed): • Group #1: feed containing JA 39 (100 ppm); • Group #2: feed containing JA 42 (100 ppm); • Group #3: feed containing Coxistac (60 ppm), a known anticoccidial agent (see U.S. Pat. No. 3,857,948);
Group #4: feed containing no drug (control group).
The chickens were fed as above on day 8 and 9 after hatch. On day 10 after hatch, each chicken was infected orally by 6 000-7 000 oocysts containing a mixture of 5 mature sporulated strains, namely Eimeria acervulina, E. maxima, E. necatrix, E. tenella and E. brunetti. The groups #1-3 received drug as above from day 10 to 21 after hatch.
From day 14 to 21 after hatch, fresh fecal droplets were collected and examined daily. The average number of oocysts/g faeces was then calculated in accordance with the so-called Mc-Master technique (Soulsby, E. J., Helminths, Arthropods & Protozoa of domesticated animals, p. 789, 6th Ed., Williams & Wilkins Co. Baltimore (USA), Tindall & Cassell Ltd., London, 1968). The final weight of and mean total amount of feed consumed by each bird were also examined, and the results are summarized in Table 8 hereinbelow.

[10] = day 1 post infection (day of dosing), single s.c. dose 50.0 mg/kg
[11] = day 3 post infection, single s.c. dose 50.0 mg/kg on day 1, 50 mg/kg
[12] = day 9 post infection, single s.c. dose 50.0 mg/kg on day 1, 50 mg/kg
[13] = day 11 post infection, single s.c. dose 50.0 mg/kg on day 1, 50 mg/kg
[14] = in vitro broth dilution, unit assumed

| SMILES | MIC [2] [µg/mL] | MIC [3] [µg/mL] | MIC [4] [µg/mL] | MIC [5] [µg/mL] | MIC [6] [µg/mL] | MIC [7] [µg/mL] | MIC [8] [µg/mL] | further results |
| --- | --- | --- | --- | --- | --- | --- | --- | --- |
| CC(C)c1ccc(Nc2cc3c(cc2F)c(=O)c(C(=O)O)cn3C2CC2)cc1 [JA 74, 1-cyclopropyl-6-fluoro-7-(4-isopropylanilino)-4-oxo-1,4-dihydro-3-quinolinecarboxylic acid] | 0.12 (≈ 0.315 µM) | 2 (≈ 5.26 µM) | 2 (≈ 5.26 µM) | 0.12 (≈ 0.315 µM) | 0.12 (≈ 0.315 µM) | 0.12 (≈ 0.315 µM) | 0.12 (≈ 0.315 µM) | Number of T. evansi per examined field [1, 10]: + (+=1-4 organisms); Number of T. evansi per examined field [1, 11]: ++ (++=5-10 organisms); Number of T. evansi per examined field ([1]; day 5 post infection, single s.c. dose 50.0 mg/kg on day 1, 50 mg/kg): +++ (+++=>10 organisms) and 0 (0=no organisms detected) (6×) and ++ (++=5-10 organisms) (2×) and + (+=1-4 organisms); Number of T. evansi per examined field ([1]; day 7 post infection, single s.c. dose 50.0 mg/kg on day 1, 50 mg/kg): dead and 0 (0=no organisms detected) (9×); Number of T. evansi per examined field [1, 12]: dead and 0 (0=no organisms detected) (9×); Number of T. evansi per examined field [1, 13]: dead and 0 (0=no organisms detected) (9×); Number of T. evansi per examined field ([1]; day 13 post infection, single s.c. dose 50.0 mg/kg on day 1, 50 mg/kg): dead and 0 (0=no organisms detected) (9×) |
| CC[C@@H](C(=O)[C@@H](C)[C@@H](O)[C@H](C)[C@@H]1O[C@@H]([C@@H](CC)C(=O)O)CC[C@@H]1C)[C@H]1O[C@]2(C=C[C@@H](O)[C@]3(CC[C@@](C)([C@H]4CC[C@](O)(CC)[C@H](C)O4)O3)O2)[C@H](C)C[C@@H]1C [Coxistac, reference compound] |  |  |  |  |  |  |  | Average number of Eimeria spp. oocysts/g faeces, day after hatch 14 ([9]; day 14 after hatch, infected day 10): 0.0 oocysts/g faeces; Average number of Eimeria spp. oocysts/g faeces, day after hatch 15 ([9]; day 15 after hatch, infected day 10): 3000 oocysts/g faeces; Average number of Eimeria spp. oocysts/g faeces, day after hatch 16 ([9]; day 16 after hatch, infected day 10): 4000 oocysts/g faeces; Average number of Eimeria spp. oocysts/g faeces, day after hatch 17 ([9]; day 17 after hatch, infected day 10): 7000 oocysts/g faeces; Average number of Eimeria spp. oocysts/g faeces, day after hatch 18 ([9]; day 18 after hatch, infected day 10): 2000 oocysts/g faeces; Average number of Eimeria spp. oocysts/g faeces, day after hatch 19 ([9]; day 19 after hatch, infected day 10): 2000 oocysts/g faeces; Average number of Eimeria spp. oocysts/g faeces, day after hatch 21 ([9]; day 21 after hatch, infected day 10): 0.0 oocysts/g faeces; Mean body weight ([9]; final weight, infected chickens): 62.0 g; Mean amount of feed consumed ([9]; mean total feed per bird, infected chickens): 120 g; Average number of Eimeria spp. oocysts/g faeces, Total ([9]; total of days 14-21 after hatch): 18000 oocysts/g faeces |
| O=C(O)c1cn(C2CC2)c2cc(N3CCC(CNC(=S)Nc4ccccc4)CC3)c(F)cc2c1=O [JA 110, 7-(4-{[(anilinocarbothioyl)amino]methyl}-1-piperidinyl)-1-cyclopropyl-6-fluoro-4-oxo-1,4-dihydro-3-quinolinecarboxylic acid] |  |  |  |  |  |  |  | Number of T. evansi per examined field [1, 10]: + (+=1-4 organisms); Number of T. evansi per examined field [1, 11]: ++ (++=5-10 organisms); Number of T. evansi per examined field ([1]; day 5 post infection, single s.c. dose 50.0 mg/kg on day 1): ++ (++=5-10 organisms); Number of T. evansi per examined field ([1]; day 7 post infection, single s.c. dose 50.0 mg/kg on day 1): ++ (++=5-10 organisms); Number of T. evansi per examined field [1, 12]: + (+=1-4 organisms) and 0 (0=no organisms detected) (9×); Number of T. evansi per examined field [1, 13]: + (+=1-4 organisms) and 0 (0=no organisms detected) (9×); Number of T. evansi per examined field ([1]; day 13 post infection, single s.c. dose 50.0 mg/kg on day 1): 0 (0=no organisms detected) |
| COCC(C)N(c1cc2c(cc1F)c(=O)c(C(=O)O)cn2C1CC1)S(=O)(=O)c1ccc([N+](=O)[O-])cc1 (stereo not shown) [JA 149, 1-cyclopropyl-6-fluoro-7-{(2-methoxy-1-methylethyl)[(4-nitrophenyl)sulfonyl]amino}-4-oxo-1,4-dihydro-3-quinolinecarboxylic acid] | 0.12 (≈ 0.231 µM) | 2 (≈ 3.85 µM) | 2 (≈ 3.85 µM) | 0.12 (≈ 0.231 µM) | 0.12 (≈ 0.231 µM) | 0.12 (≈ 0.231 µM) | 0.12 (≈ 0.231 µM) |  |
| CC(=O)CC(=O)N(CC1CCCO1)c1cc2c(cc1F)c(=O)c(C(=O)O)cn2C1CC1 (stereo not shown) [JA 144] |  |  |  |  |  |  |  | M.I.C. values Bacillus cereus ([2]; unit assumed): 0.12 µg/mL; M.I.C. values Streptoc. faecium ([3]; unit assumed): 0.5 µg/mL; M.I.C. values Microc. Luteus [4, 14]: 1 µg/mL; M.I.C. values Staph. epidermidis [5, 14]: 0.12 µg/mL; M.I.C. values Staph. aureus [6, 14]: 0.12 µg/mL; M.I.C. values Staph. (ATCC 6538) [7, 14]: 0.06 µg/mL; M.I.C. values Bacillus subtilus [8, 14]: 0.12 µg/mL |
| CS(=O)(=O)N1CCN(c2cc3c(cc2F)c(=O)c(C(=O)O)cn3C2CC2)CC1 [JA 10, 1-cyclopropyl-6-fluoro-7-[4-(methylsulfonyl)-1-piperazinyl]-4-oxo-1,4-dihydro-3-quinolinecarboxylic acid] | 0.12 (≈ 0.293 µM) | 1 (≈ 2.44 µM) | 2 (≈ 4.88 µM) | 0.25 (≈ 0.611 µM) | 0.25 (≈ 0.611 µM) | 0.25 (≈ 0.611 µM) | 0.5 (≈ 1.22 µM) |  |
| O=C(O)c1cn(C2CC2)c2cc(N(CC3CCCO3)S(=O)(=O)CCc3ccccc3)c(F)cc2c1=O (stereo not shown) [JA 137, 1-cyclopropyl-6-fluoro-4-oxo-7-[(phenethylsulfonyl)(tetrahydro-2-furanylmethyl)amino]-1,4-dihydro-3-quinolinecarboxylic acid] | 0.25 (≈ 0.486 µM) | 1 (≈ 1.94 µM) | 2 (≈ 3.89 µM) | 0.25 (≈ 0.486 µM) | 0.5 (≈ 0.972 µM) | 0.12 (≈ 0.233 µM) | 0.12 (≈ 0.233 µM) |  |
| O=C(O)c1ccc(CNc2cc3c(cc2F)c(=O)c(C(=O)O)cn3C2CC2)cc1 [JA 70, 7-[(4-carboxybenzyl)amino]-1-cyclopropyl-6-fluoro-4-oxo-1,4-dihydro-3-quinolinecarboxylic acid] | 0.12 (≈ 0.303 µM) | 2 (≈ 5.05 µM) | 1 (≈ 2.52 µM) | 0.25 (≈ 0.631 µM) | 0.12 (≈ 0.303 µM) | 0.12 (≈ 0.303 µM) | 0.25 (≈ 0.631 µM) |  |
| O=C(O)c1cn(C2CC2)c2cc(N(CC3CCCO3)C(=O)c3cccs3)c(F)cc2c1=O (stereo not shown) [JA 140, 1-cyclopropyl-6-fluoro-4-oxo-7-[(tetrahydro-2-furanylmethyl)(2-thienylcarbonyl)amino]-1,4-dihydro-3-quinolinecarboxylic acid] | 0.06 (≈ 0.131 µM) | 0.5 (≈ 1.1 µM) | 1 (≈ 2.19 µM) | 0.12 (≈ 0.263 µM) | 0.12 (≈ 0.263 µM) | 0.06 (≈ 0.131 µM) | 0.06 (≈ 0.131 µM) |  |
